Assay results as given in patent US12239686B2, “Immune checkpoint inhibitor combinations” (LYTIX BIOPHARMA AS, priority 2014, dated 2025).
Non-standard residues stand in square brackets, D forms with d. Residues, ends and D or L forms follow the SMILES beside them. Dip = N[C@H](C(=O)O)C(c1ccccc1)c1ccccc1

How the values were obtained:
[1] = tested on: murine A20 B-cell lymphoma; assay: Adoptive spleen cell transfer, A20 B-cell lymphoma model; type: in vivo, mice; details: donors: LTX-315 1 mg intratumoural once daily 3 days, complete regression
Description: […] Balb/c mice (n=32) were each inoculated with A20 cells (5 million in 50 μL s.c.) on the abdominal surface. Once tumours had reached 20 mm^2 they were injected with LTX-315 (1 mg) injected intratumourally, once daily for 3 days, in a volume of 50 μL. Tumour size (mm^2) and body weight were subsequently monitored and a further injection of LTX-315 was given if any tumour re-growth was observed. Subsequently, mice showing complete tumour regression were sacrificed and used as donors for transfer of splenocytes while naive donor mice were used as controls. Spleens from donor mice were excised and cells isolated. Naive receiver mice were irradiated and divided into 2 groups. Group 1 received isolated splenocytes from cured mice, whereas group 2 received isolated splenocytes from naive mice. Freshly prepared cells were injected (20×106 per 100 μl) via the tail vein. Twenty four hours later receiver mice were inoculated with 5 million murine A20 B-cell lymphoma cells on the abdominal surface as described above. Tumour size and body weight were monitored until the maximum tumour burden of ˜125 mm^2 was reached, or a serious adverse events occurred (i.e. wound formation due to tumour tissue necrosis) at which point mice were sacrificed.

human A547 cells = assay: TEM, mitochondrial membrane; type: cell-based; details: 10 μg/ml, 60 minutes
Description: FIG. 16 LTX-315 disintegrates the mitochondria membrane. TEM images of FIG. 16a: human A547 melanoma cells treated with LTX-315 (10 μg/ml) for 60 minutes compared to FIG. 16b: control cells.

A375 cells = assay: Release of HMGB1, Western blot of lysate and supernatant; type: cell-based, human; details: 35 μM, 5-60 min
Description: A375 cells were seeded with 3×10^5 cells/well in 6-well plates in a complete media, and allowed to adhere overnight. Cells were treated with LTX-315 or LTX-328 at 35 μM, and incubated at 37° C. and 5% CO2 for different time points (5, 10, 15, 30, 60 min), and negative controls were serum-free RPMI-1650. Supernatants (S) were collected and centrifuged at 1,400 g for five minutes, and cell lysates (L) were harvested after washing with PBS twice and then subsequently lysed using a 4× Sample buffer (Invitrogen, number), 0.1 M DTT (Sigma number) and water. Supernatants were concentrated using Amicon Ultra 50K centrifugal filters (Millipore UFC505024), and the cell lysate was sonicated. Both supernatants and lysate were boiled and resolved in a 10% sodium dodecyl sulfate polyacrylamide gel electrophoresis (SDS-PAGE), and then electro transferred to a polyvindiline difluoride (PVDF) membrane (Millipore). The membrane was blocked in 5% milk and incubated with the HMGB1 antibody (rabbit, polyclonal, abcam ab 18256); the membrane was then rinsed several times with TBST, incubated with a horseradish peroxidase (HRP)-conjugated secondary antibody (abcam ab6721), rinsed again with TBST and then developed using WB Luminol Reagent (Santa Cruz Biotechnology, Heidelberg, Germany).

[2] = tested on: EMT-6 murine mammary carcinoma; assay: EMT-6 mammary carcinoma model, two-flank tumours; type: in vivo, mice
Description: The anti-PD-L1 antibody had the following characteristics: ref: BE0101, Bioxcell; clone 10F.9G2; reactivity: mouse; isotype: Rat IgG2b. LTX-315 was prepared at a dose of 0.5 mg/50 μL in 0.9% sodium chloride solution. Anti-PD-L1 antibody was prepared at a concentration in phosphate-buffered saline and was administered at a dose of 10 mg/kg. LTX-315 was injected into the tumour grafted on the right flank of the mice, anti-PD-L1 antibody was injected into the peritoneal cavity of the mice.
Induction of MET-6 tumours in mice: A first tumor was induced by subcutaneous injection of 1×10^6 of EMT-6 cells in 200 μL of RPMI 1640 into the right flank of Balb/C female mice. The day of tumor cell injection in the right flank was considered as DO. A second tumor was induced by subcutaneous injection of 1×10^5 of EMT-6 cells in 200 μL of RPMI 1640 into the left flank of Balb/C female mice. The day of tumor cell injection in the left flank was considered as D3.
Treatment schedule: Mice were randomized according to their body weight on D3 into four groups each of 5 mice (group 1) or 10 mice (groups 3, 5 and 7) using Vivo Manager® software (Biosystemes, Couternon, France). A statistical test (analysis of variance) was performed to test for homogeneity between groups. […]
Mouse monitoring: All study data, including mouse body weight measurements, tumour volume, clinical and mortality records, and treatment were scheduled and recorded on Vivo Manager® database (Biosystemes, Dijon, France). The viability and behaviour was recorded every day. Body weights were measured thrice a week. The length and width of the tumor was measured three times a week with calipers and the volume of the tumour was estimated by the following formula: tumour volume=(width2×length)/2 (SIMPSON-HERREN L. et al. Cancer Chemotherapy Rep., 54: 143, 1970).

## NCCCC[C@H](NC(=O)[C@@H](NC(=O)[C@H](Cc1c[nH]c2ccccc12)NC(=O)[C@H](CCCCN)NC(=O)[C@H](CCCCN)NC(=O)[C@H](Cc1c[nH]c2ccccc12)NC(=O)[C@H](Cc1c[nH]c2ccccc12)NC(=O)[C@H](CCCCN)NC(=O)[C@@H](N)CCCCN)C(c1ccccc1)c1ccccc1)C(N)=O [LTX-315, K-K-W-W-K-K-W-Dip-K-NH2] (H-KKWWKKW[Dip]K-NH2)
[1]
  tumour growth in irradiated recipients of splenocytes from LTX-315-cured donors vs naive donors: Inhibition of tumour growth was observed
Human A547 cells
  effect on the mitochondrial membrane (TEM): disintegration of the mitochondrial membrane
A375 cells
  HMGB1 translocation from cell lysate to supernatant: gradual translocation from the cell lysate to the supernatant detected
[2]; LTX-315 0.5 mg i.t. Q1Dx3, anti-PD-L1 10 mg/kg IP Q2Dx6
  test mice surviving for more than 50 days after tumour induction: 30%
[2]; treated flank, day 52 or when sacrificed
  Proportion of Mice with total tumour regression, Right flank: 30%
[2]; untreated flank, day 52 or when sacrificed
  Proportion of Mice with total tumour regression, Left flank: 10%
